From patent US20060040957A1, “BICYCLIC PYRIMIDINE MATRIX METALLOPROTEINASE INHIBITORS” (priority 2001, published 2006)
Counter-ions that a name gives are not always drawn. Like-named read-outs stand apart in the source and are kept apart here.

What was measured:
[1] = molecular target: MMP-14CD (catalytic domain of MMP-14) (Homo sapiens, UniProt P50281); test: Thiopeptolide substrate hydrolysis assay, MMP-14CD; type: biochemical; settings: HEPES pH 7.0, 22° C., read-out: IC50 (μM) Versus Certain MMPs: MMP-14 CD
Text: (§1) The invention compounds of Formula I have been evaluated in standard assays for their ability to inhibit the catalytic activity of various MMP enzymes.
(§2) Thiopeptolide substrates show virtually no decomposition or hydrolysis at or below neutral pH in the absence of a matrix metalloproteinase enzyme.
(§3) Several representative compounds have been evaluated for their ability to inhibit various matrix metalloproteinase enzymes.

[2] = molecular target: T1, MMP-1FL (full length interstitial collagenase) (Homo sapiens, UniProt P03956); test: Thiopeptolide substrate hydrolysis assay, MMP-1FL; type: biochemical; settings: HEPES pH 7.0, 22° C., read-out: IC50 (μM) Versus Certain MMPs: MMP-01 FL
T1 sequence (P03956 100-469): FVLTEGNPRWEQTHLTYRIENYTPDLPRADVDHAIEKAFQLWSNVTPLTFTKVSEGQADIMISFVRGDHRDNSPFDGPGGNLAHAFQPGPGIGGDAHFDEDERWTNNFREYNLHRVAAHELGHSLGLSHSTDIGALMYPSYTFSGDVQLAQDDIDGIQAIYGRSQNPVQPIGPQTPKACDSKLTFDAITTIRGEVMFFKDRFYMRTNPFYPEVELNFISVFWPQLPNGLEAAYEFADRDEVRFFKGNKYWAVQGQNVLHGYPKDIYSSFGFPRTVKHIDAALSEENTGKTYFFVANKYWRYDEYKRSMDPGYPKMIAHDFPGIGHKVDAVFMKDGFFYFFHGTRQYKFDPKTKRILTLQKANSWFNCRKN
Text: as §1, §2, §3

[3] = molecular target: MMP-3CD (catalytic domain of stromelysin-1) (Homo sapiens, UniProt P08254); test: Thiopeptolide substrate hydrolysis assay, MMP-3CD; type: biochemical; settings: MES buffer pH 6.0, read-out: IC50 (μM) Versus Certain MMPs: MMP-03 CD
Chain of MMP-3CD (catalytic domain of stromelysin-1) (P08254 100-272 limits assumed): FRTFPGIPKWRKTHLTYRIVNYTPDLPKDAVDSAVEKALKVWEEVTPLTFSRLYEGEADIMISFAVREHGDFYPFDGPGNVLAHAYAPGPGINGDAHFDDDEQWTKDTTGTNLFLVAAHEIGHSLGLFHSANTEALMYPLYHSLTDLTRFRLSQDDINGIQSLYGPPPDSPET
Procedure: as §1, §2, §3
It should be appreciated that the assay buffer used with MMP-3CD was 50 mM N-morpholinoethane sulfonate (−MES=) at pH 6.0 rather than the HEPES buffer at pH 7.0 described above.

[4] = molecular target: T2, MMP-7FL (full length matrilysin) (Homo sapiens, UniProt P09237); test: Thiopeptolide substrate hydrolysis assay, MMP-7FL; type: biochemical; settings: HEPES pH 7.0, 22° C., read-out: IC50 (μM) Versus Certain MMPs: MMP-07 FL
T2 sequence (P09237 95-267): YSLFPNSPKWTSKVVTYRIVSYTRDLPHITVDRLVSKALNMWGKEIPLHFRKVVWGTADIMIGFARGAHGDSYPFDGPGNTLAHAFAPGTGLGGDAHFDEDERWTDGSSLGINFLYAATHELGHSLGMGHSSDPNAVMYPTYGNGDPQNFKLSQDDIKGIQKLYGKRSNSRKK
Text: as §1, §2, §3

[5] = molecular target: T3, MMP-2FL (full length Gelatinase A) (Homo sapiens, UniProt P08253); test: Thiopeptolide substrate hydrolysis assay, MMP-2FL; type: biochemical; settings: HEPES pH 7.0, 22° C., read-out: IC50 (μM) Versus Certain MMPs: MMP-02 FL
T3 sequence (P08253 110-660): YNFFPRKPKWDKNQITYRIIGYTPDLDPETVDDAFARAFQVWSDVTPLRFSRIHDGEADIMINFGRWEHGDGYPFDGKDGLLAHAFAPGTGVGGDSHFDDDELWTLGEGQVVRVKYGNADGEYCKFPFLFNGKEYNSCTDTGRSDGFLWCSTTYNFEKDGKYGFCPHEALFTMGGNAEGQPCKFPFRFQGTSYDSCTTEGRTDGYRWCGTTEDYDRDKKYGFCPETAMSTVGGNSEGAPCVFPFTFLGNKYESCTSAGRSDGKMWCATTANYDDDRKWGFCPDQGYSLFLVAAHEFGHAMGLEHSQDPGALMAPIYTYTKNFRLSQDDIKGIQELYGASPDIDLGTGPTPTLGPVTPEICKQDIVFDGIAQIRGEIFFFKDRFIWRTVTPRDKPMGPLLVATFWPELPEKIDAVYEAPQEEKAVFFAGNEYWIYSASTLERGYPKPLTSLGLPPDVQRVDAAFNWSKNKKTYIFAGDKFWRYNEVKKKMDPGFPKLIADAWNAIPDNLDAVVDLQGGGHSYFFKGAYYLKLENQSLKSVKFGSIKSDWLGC
Text: as §1, §2, §3

[6] = molecular target: MMP-9FL (full length Gelatinase B) (Homo sapiens, UniProt P14780); test: Thiopeptolide substrate hydrolysis assay, MMP-9FL; type: biochemical; settings: HEPES pH 7.0, 22° C., read-out: IC50 (μM) Versus Certain MMPs: MMP-09 FL
Chain of MMP-9FL (full length Gelatinase B) (P14780 94-707, species assumed): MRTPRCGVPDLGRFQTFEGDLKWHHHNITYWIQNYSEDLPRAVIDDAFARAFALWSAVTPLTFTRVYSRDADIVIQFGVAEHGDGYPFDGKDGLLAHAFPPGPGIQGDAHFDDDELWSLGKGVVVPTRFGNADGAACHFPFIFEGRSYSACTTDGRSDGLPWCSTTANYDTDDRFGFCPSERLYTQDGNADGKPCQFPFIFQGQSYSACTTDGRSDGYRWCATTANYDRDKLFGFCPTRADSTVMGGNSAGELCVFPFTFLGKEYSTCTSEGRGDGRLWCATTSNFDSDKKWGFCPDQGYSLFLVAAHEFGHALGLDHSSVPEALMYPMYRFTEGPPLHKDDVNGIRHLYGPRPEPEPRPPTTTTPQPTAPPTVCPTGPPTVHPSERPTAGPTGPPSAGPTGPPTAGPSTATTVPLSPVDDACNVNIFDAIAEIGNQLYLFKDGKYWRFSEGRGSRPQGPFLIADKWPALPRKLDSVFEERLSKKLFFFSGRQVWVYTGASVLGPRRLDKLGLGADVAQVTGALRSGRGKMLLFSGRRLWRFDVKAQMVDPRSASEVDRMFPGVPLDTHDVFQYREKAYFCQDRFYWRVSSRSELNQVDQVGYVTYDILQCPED
Text: as §1, §2, §3

[7] = molecular target: MMP-13CD (catalytic domain of collagenase 3) (Homo sapiens, UniProt P45452); test: Thiopeptolide substrate hydrolysis assay, MMP-13CD; type: biochemical; settings: thiopeptolide substrate, HEPES pH 7.0, 22° C.
Text: as §2

[8] = IC50 (μM) Versus Certain MMPs: MMP-13 CD
[9] = read-out: IC50 (μM) Versus Certain MMPs: MMP-13 CD

SMILES	IC50 [1] [µM]	IC50 [2] [µM]	IC50 [3] [µM]	IC50 [4] [µM]	IC50 [5] [µM]	IC50 [6] [µM]	IC50 [7, 8] [µM]	IC50 [7, 9] [µM]	melting point [°C]
O=C(OCc1ccccc1)c1cn2c(=O)n(Cc3ccccc3)c(=O)cc2s1 [Example 1, 6-Benzyl-5,7-dioxo-6,7-dihydro-5H-thiazolo[3,2-c]pyrimidine-2-carboxylic acid benzyl ester]	> 30	> 100	23	96					
Cc1c(=O)n(Cc2ccccc2)c(=O)n2cc(C(=O)OCc3ccccc3)sc12 [Example 2, 6-Benzyl-8-methyl-5,7-dioxo-6,7-dihydro-5H-thiazolo[3,2-c]pyrimidine-2-carboxylic acid benzyl ester]		> 100							
O=C(OCc1ccncc1)c1cn2c(=O)n(Cc3ccccc3)c(=O)cc2s1 [Example 3, 6-Benzyl-5,7-dioxo-6,7-dihydro-5H-thiazolo[3,2-c]pyrimidine-2-carboxylic acid pyridin-4-ylmethyl ester hydrochloride]	> 100	> 100	11	> 100	> 100	> 100			
O=C(NCc1ccccc1)c1cn2c(=O)n(Cc3ccccc3)c(=O)cc2s1 [Example 4, 6-Benzyl-5,7-dioxo-6,7-dihydro-5H-thiazolo[3,2-c]pyrimidine-2-carboxylic acid benzylamide]	47.5	81	27	65	> 100	83.5	0.572		
O=c1cc2sc(C(O)CCc3ccccc3)cn2c(=O)n1Cc1ccccc1 (stereo not drawn) [Example 5, 6-Benzyl-2-(1-hydroxy-3-phenyl-propyl)-thiazolo[3,2-c]pyrimidine-5,7-dione]	> 100	> 100	> 100	> 100	> 100	> 100		14.3	
O=C(Nc1ccc(-c2ccccc2)cc1)c1cn2c(=O)n(Cc3ccccc3)c(=O)cc2s1 [Example 6, 6-Benzyl-5,7-dioxo-6,7-dihydro-5H-thiazolo[3,2-c]pyrimidine-2-carboxylic acid biphenyl-4-ylamide]	7.3	> 30	3.5	9.2	> 30	> 30		23	
O=C(CCc1ccccc1)c1cn2c(=O)n(Cc3ccccc3)c(=O)cc2s1 [Example 8, 6-Benzyl-2-(3-phenyl-propionyl)-thiazolo[3,2-c]pyrimidine-5,7-dione]	8.8	> 100	3.2	> 30	> 100	> 100	6.6		
O=C(NCc1ccccc1)c1cn2c(=O)n(Cc3ccc(Cl)c(Cl)c3)c(=O)cc2s1 [Example 12, 6-(3,4-Dichlorobenzyl)-5,7-dioxo-6,7-dihydro-5H-thiazolo[3,2-c]pyrimidine-2-carboxylic acid benzylamide]	> 30			20	> 100	> 30		0.293	216 to 217
Cc1c(C(=O)OCc2ccccc2)sc2cc(=O)n(Cc3ccccc3)c(=O)n12 [Example 19, 6-Benzyl-3-methyl-5,7-dioxo-6,7-dihydro-5H-thiazolo[3,2-c]pyrimidine-2-carboxylic acid benzyl ester]	> 30	> 100	> 100	8.8	> 100	> 30	21		
O=C(OCc1ccncc1)C1Cn2c(cc(=O)n(Cc3ccccc3)c2=O)S1 (stereo not drawn) [Example 21, 6-Benzyl-5,7-dioxo-2,3,6,7-tetrahydro-5H-thiazolo[3,2-c]pyrimidine-2-carboxylic acid pyridin-4-ylmethyl ester hydrochloride]	> 100	> 100	> 100	> 100	> 100	> 100			
COc1cc(CNC(=O)c2cn3c(=O)n(Cc4ccccc4)c(=O)c(C)c3s2)ccn1 [Example 37]	> 30	> 30	10	> 30	> 30	> 30	0.0175		
COc1cc(CNC(=O)c2cn3c(=O)n(Cc4ccccc4)c(=O)c(C)c3s2)ccn1 [Example 37a, hydrochloride]			20.5	26			0.0208		
Cc1c(=O)n(Cc2ccccc2)c(=O)n2cc(C(=O)NCc3ccc4nsnc4c3)sc12 [Example 42, 6-Benzyl-8-methyl-5,7-dioxo-6,7-dihydro-5H-thiazolo[3,2-c]pyrimidine-2-carboxylic acid(2,1,3-benzothiadiazol-5-ylmethyl)-amide]	> 100		10	> 30	> 30	> 30			
Cc1c(=O)n(Cc2ccc(C(=O)O)cc2)c(=O)n2cc(C(=O)NCc3ccncc3)sc12 [Example 62, 4-{8-Methyl-5,7-dioxo-2-[(pyridin-4-ylmethyl)-carbamoyl]-7H-thiazolo[3,2-c]pyrimidin-6-ylmethyl}-benzoic acid trifluoro-acetate]		> 100							
COC(=O)c1ccc(Cn2c(=O)c(C)c3sc(C(=O)NCc4ccc(F)cc4)cn3c2=O)cc1OC.Cl [Example 69, 4-[2-(4-Fluoro-benzylcarbamoyl)-8-methyl-5,7-dioxo-7H-thiazolo[3,2-c]pyrimidin-6-ylmethyl]-2-methoxy-benzoic acid methyl ester]	> 30		10	> 30	> 30	> 30			191 to 193
COC(=O)c1nc(Cn2c(=O)c(C)c3sc(C(=O)NCc4ccc(F)cc4)cn3c2=O)ncc1OC [Example 78, 2-[2-(4-Fluoro-benzylcarbamoyl)-8-methyl-5,7-dioxo-7H-thiazolo[3,2-c]pyrimidin-6-ylmethyl]-5-methoxy-pyrimidine-4-carboxylic acid methyl ester]	> 30	> 30	> 30	> 30	> 30	> 30			
Cc1c(=O)n(Cc2ccc(S(C)(=O)=O)cc2)c(=O)n2cc(C(=O)NCc3ccncc3)sc12 [Example 81, 6-(4-Methanesulfonyl-benzyl)-8-methyl-5,7-dioxo-6,7-dihydro-5H-thiazolo[3,2-c]pyrimidine-2-carboxylic acid(pyridin-4-ylmethyl)-amide hydrochloride]		> 100							
COC(=O)c1ccc(Cn2c(=O)c(C)c3sc(C(=O)NCc4ccc(OC)cc4)cn3c2=O)cc1 [Example 103, 4-[2-(4-Methoxy-benzylcarbamoyl)-8-methyl-5,7-dioxo-7H-thiazolo[3,2-c]pyrimidin-6-ylmethyl]-benzoic acid methyl ester]	> 100			> 100	65	> 100		0.0106	163 to 165
